Activity calls are given as the source filed them. No cut-off for these calls is given here.
How the values were obtained:
[1] = Cell cycle arrest in human FADU cells assessed as accumulation at S phase at 2.5 to 10 uM by propidium iodide staining based flow cytometry; type: functional
[2] = test system: Mus musculus; test: Acute toxicity in Swiss albino mouse assessed as changes in absolute weight of lungs up to 1000 mg/kg, po qd administered as single dose for 7 days; type: organism-based; conditions: in vivo, 168 h
[3] = test system: Mus musculus; test: Acute toxicity in Swiss albino mouse assessed as changes in relative weight of lungs up to 1000 mg/kg, po qd administered as single dose for 7 days; type: organism-based; conditions: in vivo, 168 h
[4] = test system: Mus musculus; test: Acute toxicity in Swiss albino mouse assessed as serum RBC level at 1000 mg/kg, po qd administered as single dose for 7 days (reference value: 9.07 +/- 1.13 million/mm3); type: organism-based; conditions: in vivo, 168 h
[5] = test system: Mus musculus; test: Acute toxicity in Swiss albino mouse assessed as serum SGOT level at 1000 mg/kg, po qd administered as single dose for 7 days (reference value: 34.32 +/- 3.78 U/L); type: organism-based; conditions: in vivo, 168 h
[6] = test system: Mus musculus; test: Acute toxicity in Swiss albino mouse assessed as serum albumin level at 300 mg/kg, po qd administered as single dose for 7 days (reference value: 2.49 +/- 0.17 g/dl); type: organism-based; conditions: in vivo, 168 h

O=C1C=C(OCc2ccccc2)C(=O)c2ccccc21
Activity [1]: Active | Activity [2]: Non-Toxic | Activity [3]: Non-Toxic | Activity [4]: 8.89 million/mm3 | Activity [5]: 31.68 U/L | Activity [6]: 2.92 g/dL

From ChEMBL document CHEMBL3877316, “Synthesis of pharmacologically important naphthoquinones and anticancer activity of 2-benzyllawsone through DNA topoisomerase-II inhibition” (Bioorg Med Chem, 2017)
